Results: US20260092179A1, “GENETICALLY MODIFIED HOST CELLS PRODUCING VIOLACEIN, ANALOGUES, AND DERIVATIVES THEREOF” (OCTARINE BIO APS, priority 2022, published 2026)

What was measured:
S. cerevisiae = test: Cultivation of engineered S. cerevisiae production strains (titer of each metabolite, final OD600, product toxicity); details: intracellular accumulation; growth rate and final OD600
[1] = Free radical scavenging ability of dyed Nylon 6,6 fabric (DPPH); format: biochemical; details: dyed Nylon 6,6 fabric strip
Method: Violacein is reported as being a potent antioxidant able to effectively scavenge free radicals. […] To test this, 1.5×1.5 cm dyed Nylon 6,6 fabric strips were incubated in the dark at room temperature for 1 h in 5 mL of a 5×10^−5 M DPPH free radical solution in 100% ethanol. Undyed Nylon 6,6 fabric strips were included as a negative control. After 1 h absorbance was measured at 517 nm and % scavenging ability calculated as above.

[2] = UV absorption capability (absorbance maxima, UV-A, UV-B, UV-C absorption) by HPLC; format: physicochemical
Method: The software Agilent Openlab CDS Chemstation Rev.
Violacein is reported as being a potent UV absorbent able to effectively absorb UV radiation, however, much less is known about the other violacein derivatives. To investigate the potential of using violacein and violacein derivatives as UV inhibitors and to potentially impart UV protection to fabrics, the UV absorption spectra of each compound was analyzed by HPLC and the total absorption capability at each of the most relevant UV wavelengths quantified.
For the quantification of UV absorption capacity of the compound of interest, a chromatographic separation on the F5 column and a gradient of water/acetonitrile containing 0.05% formic acid was run according to Example 5). […] The compounds were quantified based on the signal at 230 nm, using calibration curves of authentic analytical standards.
The UV absorption capacity is represented in mAU.min/mM. UV-A, UV-B and UV-C represent the most relevant regions where UV protection is required. UV-C is the most harmful type of UV radiation and can be generated by inorganic sources. UV-B radiation predominantly comes from the suns rays and is responsible for sun burn. UV-A radiation is also derived predominantly from the suns rays, and while UV-A radiation is less harmful than UV-B or UV-C but is much more prevalent.

S. cerevisiae S228c = test: Antimicrobial activity of dyed Nylon 6,6 fabric: final OD600 and % inhibition; format: cell-based
Method: (§1) Violacein is reported as being a potent antibiotic, capable of inhibiting the growth of a wide range of microbial kingdoms including bacteria, yeast, fungi, viruses, protozoa and nematode. […] To test this, overnight cultures of wild-type E. coli DH5a and S. cerevisiae S228c strains were diluted in 5 mL of cultivation media (LB for E. coli, minimal media for S. cerevisiae) to a starting OD600 of 0.1. 1.5×1.5 cm dyed Nylon 6,6 fabric strips were sterilized by submerging in 75% ethanol for 15 mins and air drying in a laminar air flow hood before adding to each culture (with undyed Nylon 6,6 fabric as a negative control). […] This experiment provides evidence that all violacein derivatives display antimicrobial properties.

E. coli DH5a = test: as above; format: cell-based
Method: as §1

[3] = Solubility, stability (heat, UV) and colour of violacein and proviolacein glycosides in aqueous solution; format: physicochemical
From the text: In this experiment, qualitative assessments of the solubility, stability and colour of glycosylated violacein and proviolacein were made. The first notable observation was that after the scale-up glycosylation reaction the aqueous phase of the reaction mix was purple (for violacein) and blue (for proviolacein). […] While its well known that glycosylation greatly improves the water solubility of molecules, the attachment of a sugar group typically changes the physiochemical properties of the molecule. In the case of coloured compounds, this typically eliminates their colour. The observation here that glycosylation results in a derivative that retains the original colour is both surprising and commercially useful for use in aqueous products e.g. beverages. To test the stability of violacein and proviolacein glycosides in aqueous solution the solutions were exposed to heat (incubated at 80° c. for 6 h) and UV (incubated in a UV hood for 6 h). HPLC analysis before after each test was used to measure the amount that had degraded during exposure. […] (approx. 0.1% lost during exposure).

Method for S. cerevisiae SC-144: After cultivation cultures were transferred to 50 mL falcon tubes and centrifuged 4000×g for 5 min. […] The aqueous layers were separated from the cell pellets to observe the colour of the cells. […] Samples were diluted in water to a final volume of 100 μL until they were within the linear range of the spectrophotometric plate reader. Each sample was measured at 575 nm (experimentally determined to be the emission maxima of deoxyviolacein). […] The final OD600 of each cultivation was also measured by first washing the cell pellet with water (to remove as much deoxyviolacein from the media as possible) and finally resuspending in 50 mL water.

With N=C(Cc1c[nH]c2ccccc12)C(=O)O [IPA imine, Indole 3-pyruvic acid imine] the “toxicity to the yeast production host” value (S. cerevisiae) was “not toxic”.
For CCCCCCCCCCCCCC(=O)OC(C)C [isopropyl myristate], the “toxicity of in situ extractant to S. cerevisiae” value (S. cerevisiae SC-144) was “non-toxic”.
With O=C1N=C(c2c[nH]c3ccccc23)C=C1c1c[nH]c2ccccc12 [prodeoxyviolacein] the OD517 ([1]; 1 h in the dark in 5×10^−5 M DPPH in 100% ethanol) was 1.99, the Scavenging ability % ([1]; 1 h in the dark in 5×10^−5 M DPPH, vs undyed control) was 12.28% and the “UV absorption capability in the UV-B region” value ([2]; 305 nm) was “particularly high”. The “Total UV absorption UV C (245 nm)” value ([2]; AUC of HPLC peak at 245 nm per mM) was 3516.1 (mAU · min)/mM, the “Total UV absorption UV B (305 nm)” value ([2]; AUC of HPLC peak at 305 nm per mM) was 3778.8 (mAU · min)/mM and the “Total UV absorption UV A (360 nm)” value ([2]; AUC of HPLC peak at 360 nm per mM) was 0 (mAU · min)/mM. The “Final OD600” value (S. cerevisiae S228c; S. cerevisiae cultured overnight at 30° c. with dyed Nylon 6,6 fabric strip, starting OD600 0.1) was 4.70, the “% Inhibition” value (S. cerevisiae S228c; S. cerevisiae, dyed Nylon 6,6 fabric vs undyed fabric control) was 12.35% and the “Final OD600” value (E. coli DH5a; E. coli cultured overnight at 30° c. with dyed Nylon 6,6 fabric strip, starting OD600 0.1) was 4.67. For the same compound, the “% Inhibition” value (E. coli DH5a; E. coli, dyed Nylon 6,6 fabric vs undyed fabric control) was 10.49%.
With O=C1NC(c2c[nH]c3ccc(OC4OC(CO)C(O)C(O)C4O)cc23)=CC1=C1C(=O)Nc2ccccc21 (stereo not shown) [violacein glucoside] the “amount lost (degraded) during exposure to UV” value [3] was “approx. 0.1%”, the “amount lost (degraded) during exposure to heat” value [3] was “approx. 0.1%” and the water solubility [3] was “water soluble”.
With “(1,1,3,3-Tetramethylbutyl)phenyl-polyethylene glycol, Polyethylene glycol tert-octylphenyl ether [Triton X-114]” the “toxicity of in situ extractant to S. cerevisiae” value (S. cerevisiae SC-144) was “non-toxic”.
